Results as given in patent publication US7635493B2, “Herbal composition for Tinea infection” (Piramal Life Sciences Limited, priority 2005, dated 2009).
≈ marks a conversion by molar mass, not a printed value.

How the values were obtained:
Microsporum gypseum = experiment: In vitro anti-dermatophytic activity, agar dilution MIC; type: cell-based; conditions: Nannizzia gypsea; M. gypseum; Sabarouds agar, 28° C./48 h
Description: (§1) In vitro Assay Procedure.
(§2) Organisms: Trichophyton mentagrophytes & Microsporum gypseum.
(§3) Cultures were grown on PDA agar slants at 28° C. for 7 days. The growth was covered with sterile saline & scraped to get a growth suspension. The resulting mixture of conidia or sporangiospores & hypal fragments was transferred to a sterile test tube. The heavy particles were allowed to settle & upper homogenous suspension was transferred to another tube. These suspensions were adjusted to an optical density that ranged from 0.09 to 0.11 (80 to 82% transmittance) using a spectrophotometer. These stock suspensions were further diluted 1:10 with saline to obtain test inoculum (1×103 to 5×10^3 cfu/ml).
(§4) Ointment & Cream: A 100 mg/ml stock solution of ointment & cream of example 4 and 5 was prepared in demineralised water+0.01% Tween 20. Calculated amount of stock solution was added to 20 ml of Sabarouds melted agar medium & poured into petri plates so as to get a series of serial two fold dilution of the extract in the medium. Five concentrations of 100, 50, 25, 10 & 5 mg/ml were used for both formulations in initial study. A repeated study was carried out using lower concentrations of both the formulations. The concentrations used were 5, 1, 0.9, 0.8, 0.7, 0.6, 0.5, 0.4 0.3, 0.2 & 0.1 mg/ml.
(§5) Extract of Example 1 and Ethyl p-methoxycinnamate: […]

[1] = system: Trichophyton mentagrophytes; experiment: as above; type: cell-based; conditions: T. mentagrophytes, Sabarouds agar, 28° C./48 h
Description: as §1, §2, §3, §4, §5

L929 cells = experiment: Cytotoxicity in L929 cell lines; type: cell-based; set-up: Cytotoxicity in L929 cell lines: unit not given here
dermatophytes = conditions: Lloydia, 39(4), 218-222, (1976); cited from earlier work
TNF-α = TNF-α production by LPS in human peripheral blood mononuclear cells (hPBMC), ELISA; type: cell-based
Description: Assay for Screening in Human Peripheral Blood Mononuclear Cells (hPBMCs). TNF-α production by Lipopolysaccharide (LPS) in hPBMC was measured according to the method described by Jansky, L. et al (Physiol. Res. 52, 593-598, (2003)). Blood was collected from healthy donors into vacutainer tubes coated with potassium EDTA (Vacutest Plast) and diluted 1:2 with Dulbecco's Phosphate Buffered Saline (DPBS) (Sigma Aldrich, St. Louis, Mo.). The PBMC were harvested from human blood and suspended in RPMI 1640 culture medium (Gibco BRL, Pasley, UK) containing 10% fetal bovine serum (FBS) (Hyclone, Utah, USA), 100 U/ml penicillin (Sigma Chemical Co. St Louis, Mo.) and 100 μg/ml streptomycin (Sigma Chemical Co. St Louis, Mo.). The cell concentration was adjusted to 1×10^6 cells/ml. The cell suspension (100 μl) was added to the wells of a 96-well culture plate. Following cell plating, 79 μl of the culture medium and 1 μl of eight different concentrations of the test samples (10 to 100 μg/ml) dissolved in dimethylsulfoxide (DMSO, Sigma, Mo., USA) were added to the cells. The final concentration of DMSO was adjusted to 0.5-1%. Rolipram (100 μM) was used as a standard compound. The plates were incubated for 30 min at 37° C. in an atmosphere of 5% CO2. Finally, 20 μl (10 μg/ml) per well of LPS, (Escherchia coli 0127:B8, Sigma Chemical Co., St. Louis, Mo.) was added, to obtain a final concentration of 2 μg/ml. The plates were incubated at 37° C. for 5 h in an atmosphere of 5% CO2. Supernatants were harvested and assayed for % TNF-α inhibition by ELISA as described by the manufacturer (R&D Systems, MN) or by cytotoxicity bioassay in L929 cells.

Q: What does the source list for `CCOC(=O)C=Cc1ccc(OC)cc1` [Ethyl p-methoxycinnamate]?
A: MIC (Microsporum gypseum): 30 µg/mL (≈ 145 µM); MIC [1]: 30 µg/mL (≈ 145 µM); Cytotoxicity in L929 cell lines (L929 cells; 10 μg/ml, 3.5 h): 20; Cytotoxicity in L929 cell lines (L929 cells; 10 μg/ml, 24 h): 27; Cytotoxicity in L929 cell lines (L929 cells; 100 μg/ml, 3.5 h): 12; Cytotoxicity in L929 cell lines (L929 cells; 100 μg/ml, 24 h): 02; Cytotoxicity (conclusion in words) (L929 cells; as measured in L929 cell lines): low cytotoxicity; Anti-dermatophytic activity (reported) (dermatophytes): reported to be anti-dermatophytic; inhibition at 10 µg/mL (TNF-α; PBMC, sample concentration 10 μg/ml, LPS-stimulated human cells, 5 h): 0%; inhibition at 100 µg/mL (TNF-α; PBMC, sample concentration 100 μg/ml, LPS-stimulated human cells, 5 h): 80%; TNF alpha activity inhibition (conclusion in words) (TNF-α; conclusion from table 1): inhibit TNF alpha activity
